Test results taken from PubChem BioAssay AID248 (DTP/NCI, 2004).
Toxic doses and inconclusive results are not listed.

System: L1210 leukemia ip in BDF1 mice, survival T/C
Assay: NCI In Vivo Anticancer Drug Screen. Data for tumor model L1210 Leukemia (intraperitoneal) in B6D2F1 (BDF1) mice
Conditions: endpoint: mean survival time, higher = longer survival
Procedure, shortened: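 Each compound was tested against a transplantable tumor grown in mice. The endpoint was survival, with treated animals benchmarked against vehicle controls as a simple ratio.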

[1] = dose: 100.0 mg/kg/injection, schedule: Q01DX001 (ip), vehicle: saline
[2] = dose: 200.0 mg/kg/injection, schedule: Q01DX001 (ip), vehicle: saline
[3] = dose: 400.0 mg/kg/injection, schedule: Q01DX001 (ip), vehicle: saline
[4] = dose: 100.0 mg/kg/injection, schedule: Q04DX003 (ip), vehicle: saline with Tween-80
[5] = dose: 200.0 mg/kg/injection, schedule: Q04DX003 (ip), vehicle: saline with Tween-80
[6] = dose: 400.0 mg/kg/injection, schedule: Q04DX003 (ip), vehicle: saline with Tween-80
[7] = dose: 100.0 mg/kg/injection, schedule: Q01DX001 (ip), vehicle: Klucel (hydroxypropylcellulose) (HPC)
[8] = dose: 100.0 mg/kg/injection, schedule: Q01DX009 (ip), vehicle: Klucel (hydroxypropylcellulose) (HPC)
[9] = dose: 100.0 mg/kg/injection, schedule: Q04DX003 (ip), vehicle: Klucel (hydroxypropylcellulose) (HPC)
[10] = dose: 200.0 mg/kg/injection, schedule: Q01DX001 (ip), vehicle: Klucel (hydroxypropylcellulose) (HPC)
[11] = dose: 200.0 mg/kg/injection, schedule: Q01DX009 (ip), vehicle: Klucel (hydroxypropylcellulose) (HPC)
[12] = dose: 200.0 mg/kg/injection, schedule: Q04DX003 (ip), vehicle: Klucel (hydroxypropylcellulose) (HPC)
[13] = dose: 400.0 mg/kg/injection, schedule: Q01DX001 (ip), vehicle: Klucel (hydroxypropylcellulose) (HPC)
[14] = dose: 400.0 mg/kg/injection, schedule: Q04DX003 (ip), vehicle: Klucel (hydroxypropylcellulose) (HPC)
[15] = dose: 100.0 mg/kg/injection, schedule: Q04DX003 (ip), vehicle: saline
[16] = dose: 200.0 mg/kg/injection, schedule: Q04DX003 (ip), vehicle: saline
[17] = dose: 400.0 mg/kg/injection, schedule: Q04DX003 (ip), vehicle: saline

For `COc1ccc2c(c1)C1(C)CCCC(C)(C(=O)O)C1C(Br)C2=O` (centres undefined), the T/C [1] was 104 % of control, the T/C [2] was 101 % of control and the T/C [3] was 102 % of control.

`CC(=O)c1ccc(OCC(O)CN2CCN(c3ccccc3)CC2)c(C)c1` (centres undefined) was tested, and the T/C [4] was 108 % of control, the T/C [5] was 108 % of control and the T/C [6] was 101 % of control.

For `CC(C)C1=NNC(=O)C1(C)C`, the T/C [1] was 105 % of control, the T/C [2] was 108 % of control and the T/C [3] was 108 % of control.

With `O=c1ssc(=Nc2ccccc2)n1-c1ccccc1` the T/C (dose: 100.0 mg/kg/injection, schedule: Q04DX003 (ip), vehicle: gum acacia) was 103 % of control, the T/C (dose: 200.0 mg/kg/injection, schedule: Q04DX003 (ip), vehicle: gum acacia) was 104 % of control and the T/C (dose: 400.0 mg/kg/injection, schedule: Q04DX003 (ip), vehicle: gum acacia) was 101 % of control.

With `CC1(C)CCCC2(C)C3Cc4occc4C(C(=O)O)C3C(O)C(O)C12` (centres undefined) the T/C [4] was 106 % of control, the T/C [5] was 109 % of control and the T/C [6] was 98 % of control.

With `CCCCCCCCC1=C(CCCCCCC(=O)OC)[14CH2]1` the T/C (dose: 75.0 mg/kg/injection, schedule: Q04DX003 (ip), vehicle: saline) was 100 % of control, the T/C (dose: 150.0 mg/kg/injection, schedule: Q04DX003 (ip), vehicle: saline) was 93 % of control and the T/C (dose: 300.0 mg/kg/injection, schedule: Q04DX003 (ip), vehicle: saline) was 90 % of control.

For `CCCC(C#N)(c1ccccc1)c1ccccc1`, the T/C [7] was 97 % of control, the T/C [8] was 95 % of control and the T/C [9] was 91 % of control. The T/C [10] was 92 % of control, the T/C [11] was 95 % of control and the T/C [12] was 104 % of control. The T/C [13] was 102 % of control and the T/C [14] was 94 % of control.

For `CCOC(=O)C(=CC(CC)C(=O)OCC)C(=O)OCC` (centres undefined) (tested in a mixture with another compound), the T/C [15] was 93 % of control, the T/C [16] was 93 % of control and the T/C [17] was 89 % of control.

`O=c1[nH]c2ccccc2nc1C(Br)Br` was tested, and the T/C [9] was 97 % of control, the T/C [12] was 105 % of control and the T/C [14] was 97 % of control.

`O=C1N(c2ccccc2)C(c2ccccc2)SC1(Cc1ccc(Br)cc1)c1ccccc1` (centres undefined) was tested, and the T/C (dose: 100.0 mg/kg/injection, schedule: Q01DX001 (ip), vehicle: saline with Tween-80) was 100 % of control, the T/C (dose: 200.0 mg/kg/injection, schedule: Q01DX001 (ip), vehicle: saline with Tween-80) was 98 % of control and the T/C (dose: 400.0 mg/kg/injection, schedule: Q01DX001 (ip), vehicle: saline with Tween-80) was 94 % of control.

`C/C=C\C(=O)N(CC)C(=NCC)c1ccc(NC(=O)c2ccc(C(=O)Nc3ccc(C(=NCC)N(CC)C(=O)/C=C/C)cc3)cc2)cc1` was tested, and the T/C (dose: 0.56 mg/kg/injection, schedule: Q01DX015 (ip), vehicle: methylcellulose (MC)) was 104 % of control, the T/C (dose: 1.12 mg/kg/injection, schedule: Q01DX015 (ip), vehicle: methylcellulose (MC)) was 112 % of control and the T/C (dose: 2.25 mg/kg/injection, schedule: Q01DX015 (ip), vehicle: methylcellulose (MC)) was 116 % of control. The T/C (dose: 4.5 mg/kg/injection, schedule: Q01DX015 (ip), vehicle: methylcellulose (MC)) was 172 % of control and the T/C (dose: 6.25 mg/kg/injection, schedule: Q01DX015 (ip), vehicle: methylcellulose (MC)) was 164 % of control.

With `COc1ccc(-n2c(=S)[nH]c3ccc(C)cc3c2=O)cc1` the T/C [4] was 92 % of control, the T/C [5] was 87 % of control and the T/C [6] was 90 % of control.

For `O=C1CC2(CCN(Cc3ccccc3)CC2)C(=O)N1N1CCCC1`, the T/C [7] was 91 % of control, the T/C [10] was 88 % of control and the T/C [13] was 89 % of control.

In the case of `CCc1c(O)c2ccc3ccccc3c2oc1=O`, the T/C [15] is reported as 97 % of control, the T/C [16] is reported as 94 % of control and the T/C [17] is reported as 94 % of control.

`CCN(CC)c1ccc(C(=C(c2ccc(N(CC)CC)cc2)c2ccc(N(CC)CC)cc2)c2ccc(N(CC)CC)cc2)cc1` was tested, and the T/C (dose: 50.0 mg/kg/injection, schedule: Q01DX009 (ip), vehicle: Klucel (hydroxypropylcellulose) (HPC)) was 88 % of control, the T/C [8] was 101 % of control and the T/C [9] was 90 % of control. For the same compound, the T/C [11] was 91 % of control and the T/C [12] was 101 % of control.
